Activity calls are given as the source filed them. The calls are words filed in the database; no cut-off is given here.
Tests used:
[1] = Drug metabolism in Sprague-Dawley rat plasma assessed as (4bR,9S)-1-(hydroxymethyl)-3,7-dimethoxy-11-methyl-6-oxo-6,8a,9,10-tetrahydro-5H-9,4b-(epiminoethano)phenanthren-4-yl cinnamate metabolite formation at 5 mg/kg, iv measured for 24 hrs by HPLC analysis; assay type: ADME, organism-based; conditions: in vivo
[2] = Drug metabolism in mouse blood assessed as cinnamic acid metabolite formation at 50 mg/kg, po measured for 0.083 to 8 hrs by HPLC analysis; assay type: ADME, organism-based; conditions: in vivo, time 0.083-8 hrs
[3] = Stability in mouse bone marrow assessed as compound remaining at 50 mg/kg, po measured for 0.083 to 8 hrs by HPLC analysis; assay type: ADME, organism-based; conditions: in vivo, time 0.083-8 hrs
[4] = Drug metabolism in rat plasma assessed as double hydrolyzation-mediated metabolite formation at 50 mg/kg, po measured for 24 hrs by HRMS analysis; assay type: ADME, organism-based; conditions: in vivo
[5] = Drug metabolism in mouse lymph node assessed as (4bR,9S)-1-(hydroxymethyl)-3,7-dimethoxy-11-methyl-6-oxo-6,8a,9,10-tetrahydro-5H-9,4b-(epiminoethano)phenanthren-4-yl cinnamate metabolite formation at 50 mg/kg, po measured for 0.083 to 8 hrs by HPLC analysis; assay type: ADME, organism-based; conditions: in vivo, time 0.083-8 hrs
[6] = Oral bioavailability in Sprague-Dawley rat at 50 mg/kg measured for 0.083 to 24 hrs by HPLC analysis; assay type: ADME, organism-based; conditions: in vivo, time 0.083-24 hrs
[7] = Drug metabolism in mouse liver assessed as (4bR,9S)-1-(hydroxymethyl)-3,7-dimethoxy-11-methyl-6-oxo-6,8a,9,10-tetrahydro-5H-9,4b-(epiminoethano)phenanthren-4-yl cinnamate metabolite formation at 50 mg/kg, po measured for 0.083 to 8 hrs by HPLC analysis; assay type: ADME, organism-based; conditions: in vivo, time 0.083-8 hrs
[8] = Drug metabolism in mouse plasma assessed as (4bR,9S)-1-(hydroxymethyl)-3,7-dimethoxy-11-methyl-6-oxo-6,8a,9,10-tetrahydro-5H-9,4b-(epiminoethano)phenanthren-4-yl cinnamate metabolite formation administered orally by HRMS analysis; assay type: ADME; conditions: po
[9] = tested on: Mus musculus; test: Anti-aplastic anemia activity in BALB/c mouse model of immune-mediated bone marrow failure assessed as increase in animal survival at 10 mg/kg, po treated for 14 days; assay type: functional, organism-based; conditions: time 14.0 day
[10] = Drug metabolism in rat plasma assessed as double hydrolyzation/demethylation-mediated metabolite formation at 50 mg/kg, po measured for 24 hrs by HRMS analysis; assay type: ADME, organism-based; conditions: in vivo
[11] = Drug metabolism in rat plasma assessed as hydrolyzation/demethylation-mediated metabolite formation at 50 mg/kg, po measured for 24 hrs by HRMS analysis; assay type: ADME, organism-based; conditions: in vivo
[12] = Drug metabolism in rat plasma assessed as hydrolyzation/double hydroxylation-mediated metabolite formation at 50 mg/kg, po measured for 24 hrs by HRMS analysis; assay type: ADME, organism-based; conditions: in vivo
[13] = Drug metabolism in mouse plasma assessed as cinnamic acid metabolite formation administered orally by HRMS analysis; assay type: ADME; conditions: po
[14] = Stability in mouse small intestine assessed as compound remaining at 50 mg/kg, po measured for 0.083 to 8 hrs by HPLC analysis; assay type: ADME, organism-based; conditions: in vivo, time 0.083-8 hrs
[15] = tested on: CTLL-2; test: Induction of ferroptosis in mouse CTLL-2 cells assessed as increase in extracellular Ca2+ influx at 10 uM incubated for 24 hrs in presence of EDTA by Fluo-4 AM dye based analysis; assay type: functional, cell-based
[16] = tested on: CTLL-2; test: Induction of ferroptosis in IL-2-stimulated mouse CTLL-2 cells assessed as increase in mitochondrial superoxide level at 30 uM incubated for 6 hrs followed by Fer-1 addition measured after 10 hrs by MitoSOX Red staining based fluorescent microscopy; assay type: functional, cell-based; conditions: time 16.0 hrs
[17] = tested on: Mus musculus; test: Anti-aplastic anemia activity in C57BL/6J mouse model of immune-mediated bone marrow failure assessed as reduction in cytotoxic T lymphocytes accumulation at 5 to 15 mg/kg, IG qd treated for 12 days; assay type: functional, organism-based; conditions: dose 5-15 mg/kg, time 12.0 day
[18] = tested on: CTLL-2; test: Induction of ferroptosis in mouse CTLL-2 cells assessed as increase in free Fe2+ level incubated for 16 hrs by FerroOrange staining based flow cytometry; assay type: functional, cell-based; conditions: dose 7.5-30 µM
[19] = tested on: CTLL-2; test: Induction of ferroptosis in mouse CTLL-2 cells assessed as increase in ROS level incubated for 16 hrs by DCFH-DA staining based flow cytometry; assay type: functional, cell-based; conditions: dose 7.5-30 µM
[20] = tested on: CD8-positive T cell; test: Inhibition of CD3/CD28-activated CD8-positive T cell activation in BALB/c mouse lymph nodes assessed as decrease in CD69 expression level at 1 to 10 uM incubated for 72 hrs by flow cytometry; assay type: functional, tissue-based; conditions: Lymph node, dose 1-10 µM
[21] = tested on: IEC-6; test: Cytotoxicity against rat IEC-6 cells assessed as inhibition of cell viability incubated for 72 hrs by CCK8 assay; assay type: functional, cell-based; conditions: IEC-6, 72 h
[22] = tested on: Mus musculus; test: Anti-aplastic anemia activity in C57BL/6J mouse model of immune-mediated bone marrow failure assessed as reduction in cytotoxic T lymphocytes hyperactivation at 5 to 15 mg/kg, IG qd treated for 12 days; assay type: functional, organism-based; conditions: dose 5-15 mg/kg, time 12.0 day
[23] = tested on: Mus musculus; test: Anti-aplastic anemia activity in C57BL/6J mouse model of immune-mediated bone marrow failure assessed as decrease in histopathological change in bone marrow treated intragastrically once daily for 21 days by H and E staining based analysis; assay type: functional, organism-based; conditions: dose 5-15 mg/kg, route ig, time 21.0 day
[24] = tested on: CD8-positive T cell; test: Inhibition of CD3/CD28-activated CD8-positive T cell proliferation in BALB/c mouse lymph nodes incubated for 72 hrs by CFSE staining based flow cytometry; assay type: functional, tissue-based; conditions: Lymph node, dose 1-10 µM
[25] = tested on: CTLL-2; test: Induction of ferroptosis in mouse CTLL-2 cells assessed as decrease in GSH level incubated for 16 hrs; assay type: functional, cell-based; conditions: dose 7.5-30 µM
[26] = tested on: Mus musculus; test: Anti-aplastic anemia activity in BALB/c mouse model of immune-mediated bone marrow failure assessed as increase in nucleated cells in bone marrow at 10 mg/kg, po treated for 14 days by H and E staining based analysis; assay type: functional, organism-based; conditions: time 14.0 day
[27] = tested on: CTLL-2; test: Induction of ferroptosis in IL-2-stimulated mouse CTLL-2 cells assessed as increase in pERK level at 30 uM incubated for 6 hrs followed by Fer-1 addition measured after 10 hrs by Western blot analysis; assay type: functional, cell-based; conditions: time 16.0 hrs
[28] = tested on: CTLL-2; test: Induction of ferroptosis in mouse CTLL-2 cells assessed as increase in intracellular lipid peroxidation level at 30 uM incubated for 16 hrs by flow cytometry; assay type: functional, cell-based
[29] = tested on: CTLL-2; test: Induction of ferroptosis in mouse CTLL-2 cells assessed as increase in mitochondrial superoxide level incubated for 16 hrs by MitoSOX Red staining based fluorescent microscopy; assay type: functional, cell-based; conditions: dose 7.5-30 µM
[30] = tested on: CTLL-2; test: Induction of ferroptosis in mouse CTLL-2 cells assessed as increase in ROS level at 10 uM incubated for 45 mins in presence of CM4620; assay type: functional, cell-based
[31] = tested on: Mus musculus; test: Anti-aplastic anemia activity in C57BL/6J mouse model of immune-mediated bone marrow failure assessed as reduction in IFN-gamma level at 5 to 15 mg/kg, IG qd treated for 12 days by ELISA; assay type: functional, organism-based; conditions: dose 5-15 mg/kg, time 12.0 day
[32] = tested on: Mus musculus; test: Anti-aplastic anemia activity in C57BL/6J mouse model of immune-mediated bone marrow failure assessed as decrease in ratio of CD8+ to CD4+ T cells at 5 to 15 mg/kg, IG qd treated for 12 days by flow cytometry; assay type: functional, organism-based; conditions: dose 5-15 mg/kg, time 12.0 day
[33] = tested on: Mus musculus; test: Anti-aplastic anemia activity in C57BL/6J mouse model of immune-mediated bone marrow failure assessed as increase in body weight at 5 to 15 mg/kg, IG qd treated for 21 days; assay type: functional, organism-based; conditions: dose 5-15 mg/kg, time 21.0 day

For `COC1=C[C@@H]2[C@@H]3Cc4c(COC(=O)/C=C/c5ccccc5)cc(OC)c(OC(=O)/C=C/c5ccccc5)c4[C@]2(CCN3C)CC1=O`, the Drug metabolism [1] was “metabolite_detected”, the Drug metabolism [2] was “metabolite_detected” and the Stability [3] was “Unstable”. For the same compound, the Drug metabolism [4] was “metabolite_detected”, the Drug metabolism [5] was “metabolite_detected” and the bioavailability [6] was 18%. The Drug metabolism [7] was “metabolite_detected”, the Drug metabolism [8] was “metabolite_detected” and the Activity [9] was “Active”. For the same compound, the Drug metabolism [10] was “metabolite_detected”, the Drug metabolism [11] was “metabolite_detected” and the Drug metabolism [12] was “metabolite_detected”. The Drug metabolism [13] was “metabolite_detected” and the Stability [14] was “Stable”.

For `COC1=C[C@@H]2[C@@H]3Cc4c(CO)cc(OC)c(OC(=O)/C=C/c5ccccc5)c4[C@]2(CCN3C)CC1=O`, the Activity [15] was “Active”, the Activity [16] was “inactive” and the Activity [17] was “Active”. The Activity [18] was “Dose-dependent-effect”, the bioavailability [6] was 59.2% and the Activity [19] was “Dose-dependent-effect”. The inhibition [20] was “Active”, the Activity [9] was “Active; All Mice Survived” and the IC50 [21] was 84.3 µM. The Activity [22] was “Active”, the Activity [23] was “Dose-dependent-effect” and the inhibition [24] was “Dose-dependent-effect”. For the same compound, the Activity [25] was “Dose-dependent-effect”, the Activity [26] was “Active” and the Activity [27] was “inactive”. The Activity [28] was “Active”, the Activity [29] was “Dose-dependent-effect” and the Activity [30] was “inactive”. For the same compound, the Activity [31] was “Active”, the Activity [32] was “Active” and the Activity [33] was “Active”.
